# Laboratory results reported in article PMC7938888, “Antidepressant drugs act by directly binding to TRKB neurotrophin receptors” (Cell, 2021).
# Entries after “also recorded” stand apart in the source; their conditions may differ.
# Tests used:
# [1] = tested on: GluR1 subunit of AMPA receptors; assay: Surface GluR1 ELISA in rat cortical cells; type: cell-based; details: TRKB inhibitors
# Experimental: Briefly, the MG87.TRKB cells or primary cortical cells from rat or mouse embryos, cultivated in clear bottom 96-well plates (ViewPlate 96, Perkin Elmer), were washed with ice-cold PBS and fixed with 100μl of 4% PFA per well. […] Following washing, the samples were incubated with HRP-conjugated anti-goat or anti-rabbit IgG (1:5000 in blocking buffer) for 1h at RT. The cells were washed 4x with 200μl of PBS for 10 min each. Finally, the chemiluminescent signal generated by reaction with ECL was analyzed in a plate reader.
# TRKB = TRKB (Mus musculus, UniProt P15209); assay: Cell-free ligand binding assay on immobilised TRKB from HEK293T lysates; design: wild-type GFP-tagged full length TRKB or the GFP-tagged Y433F TRKB mutant; host or cells: HEK293T; details: for displacement of biotinylated FLX from TRKB: biotinylated FLX 1 μM
# Experimental: (§1) The cell-free assays (binding assays) were performed in white 96-well plates, based on the protocol used for western-blotting or ELISA ([Baeza-Raja et al., 2016]; [Das et al., 2015]). The plates were precoated with anti-GFP, anti-FLAG, anti-TRK or anti-TRKB antibody (1:1000) in carbonate buffer (pH 9.8), ON at 4°C. Following blocking with 3% BSA in PBS buffer (2 h at RT), 120 ug of total protein from each sample (of lysates from HEK293T cells transfected to overexpress GFP-TRKB.wt or GFP-TRKB.Y433F) were added and incubated overnight at 4°C under agitation. […] The luminescence was determined via HRP-conjugated streptavidin (1:10000, 1h, RT) activity reaction with ECL by a plate reader. The luminescence signal from blank wells (containing all the reagents but the sample lystates, substituted by the blocking buffer) was used as background. The specific signal was then calculated by subtracting the values of blank wells from the values of the samples with matched concentration of the biotinylated ligand. For Figure 2E, the precipitated TRKB.wt or Y433F was incubated with tritiated imipramine (0-30μM) and the radioactive emission of the ligand was determined by scintillation (OptiPhase Supermix cocktail: #1200-439; MicroBeta2, Perkin-Elmer). The scintillation signal from blank wells was used as background, and the specific signal was then calculated by subtracting the values of blank wells from the values of the samples with matched concentration of the radioactive ligand.
# [2] = tested on: TRKB autophosphorylation (TRKB:pY); assay: TRKB:pY ELISA in cultured cortical cells; type: cell-based, rat; details: for rescue of BDNF-induced pTRKB response under high CHOL: cholesterol 50 μM, drug 10 μM 15 min, BDNF 10 ng/ml 15 min
# Experimental: (§2) The TRKB:pY (phosphorylated TRKB), TRKB:PLC-γ1, PLC-γ1:pTRKB.Y816 interactions and were determined by ELISA, based on the general method described in literature ([Antila et al., 2014]; [Fred et al., 2019]), with minor adjustments. Briefly, white 96-well plates (OptiPlate 96F-HB, Perkin Elmer) were coated with capturing anti-TRKB or PLC-γ1 antibody (1:1000) in carbonate buffer (pH = 9.8) overnight (ON) at 4°C. Following a blocking step with 2%BSA in TBS-T (2 h, RT), samples were incubated ON at 4°C. The incubation with antibody against pTRKB.Y816, PLC-γ1 or pY (1:2000, ON, 4°C) was followed by HRP-conjugated anti-Rb IgG (1:5000, 2h, RT) or HRP-conjugated streptavidin (1:10000, 2h, RT). Finally, the chemiluminescent signal generated by the reaction with ECL was analyzed in a plate reader (Varioskan Flash, Thermo Scientific).
# TRKB.Y433F = molecular target: T1, TRKB.Y433F (Mus musculus, UniProt P15209, Y433F); assay: Cell-free ligand binding assay, TRKB.Y433F mutant; details: tritiated imipramine, biotinylated R,R-HNK
# T1 construct: wild-type GFP-tagged full length TRKB or the GFP-tagged Y433F TRKB mutant; host or cells: HEK293T
# Experimental: as §1
# TRKB:PLC-γ1 interaction [3] = assay: TRKB:PLC-γ1 interaction ELISA in cortical cells; type: cell-based, rat
# Experimental: as §2
# TRKB:PLC-γ1 interaction [4] = assay: TRKB:PLC-γ1 interaction ELISA in MG87 cells expressing TRKB; type: cell-based, mouse; details: bCDX 2 mM/30 min pre-treatment
# Experimental: The cell line NIH 3T3 (mouse fibroblasts) stably transfected to express TRKB or TRKA (MG87.TRKB or MG87.TRKA, respectively) were used for in vitro assays ([Antila et al., 2014]), N2A and HEK293T cells were used to overexpress GFP-tagged TRKB for binding assays. The cells were maintained at 5% CO2, 37°C in Dulbecco’s Modified Eagle’s Medium (DMEM, containing 10% fetal calf serum, 1% penicillin/streptomycin, 1% L-glutamine, and, in the case of MG87.TRKB cells, with […] of G418). The cell lines used in the present study were not authenticated or genotyped for sex.
# as §2, with “The incubation with antibody against pTRKB.Y816, PLC-γ1 or pY (1:2000, ON, 4°C) was followed by HRP-conjugated anti-Rb IgG (1:5000, 2h, RT) or HRP-conjugated streptavidin (1:10000, 2h, RT).” left out
# surface TRKB = assay: Surface TRKB ELISA in primary cortical neurons; type: cell-based, rat
# Experimental: The surface levels of TRKB were also determined by ELISA ([Zheng et al., 2008]). Briefly, the MG87.TRKB cells or primary cortical cells from rat or mouse embryos, cultivated in clear bottom 96-well plates (ViewPlate 96, Perkin Elmer), were washed with ice-cold PBS and fixed with 100μl of 4% PFA per well. After washing with PBS and blocking with PBS containing 5% nonfat dry milk and 5% BSA, the samples were incubated with primary anti-TRKB antibody (R&D Systems, #AF1494, 1:1000 in blocking buffer) or anti-GluR1 subunit of AMPA receptors (CST, #8850, 1:2000 in blocking buffer) ON at 4°C. Following washing, the samples were incubated with HRP-conjugated anti-goat or anti-rabbit IgG (1:5000 in blocking buffer) for 1h at RT. The cells were washed 4x with 200μl of PBS for 10 min each. Finally, the chemiluminescent signal generated by reaction with ECL was analyzed in a plate reader.
# [5] = molecular target: GFP-tagged TRKB mutated at Y433 (GFP-TRKB.Y433F) (UniProt P15209); assay: ELISA; cell-free ligand binding assay in white 96-well plates: GFP-TRKB from 120 ug HEK293T lysate captured on antibody-coated wells (anti-GFP or anti-TRKB), washed, ligand added; read-out by HRP-streptavidin and ECL as told for biotinylated ligands; the conditions for BDNF are not told
# [6] = molecular target: GFP-tagged TRKB wild type (GFP-TRKB.wt), neurotrophic tyrosine kinase receptor 2 (UniProt P15209); assay: as above
# Sequence of GFP-tagged TRKB wild type (GFP-TRKB.wt), neurotrophic tyrosine kinase receptor 2 (P15209 32-821): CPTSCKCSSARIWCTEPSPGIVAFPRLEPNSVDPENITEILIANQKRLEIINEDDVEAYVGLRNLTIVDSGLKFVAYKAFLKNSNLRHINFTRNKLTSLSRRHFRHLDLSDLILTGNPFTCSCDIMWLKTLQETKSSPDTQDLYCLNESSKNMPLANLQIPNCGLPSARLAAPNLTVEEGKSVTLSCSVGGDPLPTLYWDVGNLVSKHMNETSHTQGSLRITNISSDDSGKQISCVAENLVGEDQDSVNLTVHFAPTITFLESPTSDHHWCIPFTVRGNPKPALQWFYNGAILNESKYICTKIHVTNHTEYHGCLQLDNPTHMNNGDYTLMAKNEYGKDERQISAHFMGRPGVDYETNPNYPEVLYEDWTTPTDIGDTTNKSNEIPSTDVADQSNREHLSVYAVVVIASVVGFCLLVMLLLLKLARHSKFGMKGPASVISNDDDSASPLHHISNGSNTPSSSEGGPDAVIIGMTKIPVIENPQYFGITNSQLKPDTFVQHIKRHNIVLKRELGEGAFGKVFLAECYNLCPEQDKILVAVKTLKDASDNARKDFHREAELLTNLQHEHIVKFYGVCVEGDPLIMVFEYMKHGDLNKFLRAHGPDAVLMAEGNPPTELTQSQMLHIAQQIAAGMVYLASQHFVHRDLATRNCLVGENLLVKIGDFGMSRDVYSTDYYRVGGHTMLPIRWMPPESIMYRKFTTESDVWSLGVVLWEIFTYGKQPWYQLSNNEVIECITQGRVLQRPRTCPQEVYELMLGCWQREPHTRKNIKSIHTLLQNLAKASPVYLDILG
# Sequence of TRKB (P15209 32-821): as above
# T1 sequence (P15209 32-821 Y433F): as the sequence (P15209 32-821) above, with Y402F counted along it
# Sequence of GFP-tagged TRKB mutated at Y433 (GFP-TRKB.Y433F) (P15209 32-821 Y433F): as the sequence (P15209 32-821) above, with Y402F counted along it
compound,measurement,setting,value
O=C(Nc1ccccc1C(=O)NC1CCCCNC1=O)c1cc2ccccc2s1 (stereo not drawn) [ANA12],"effect on FLX- and R,R-HNK-induced increase in surface GluR1",[1],prevented
"N[C@]1(c2ccccc2Cl)CCC[C@H](O)C1=O [S,S-HNK, 2S,6S-HNK]",displacement of biotinylated FLX from TRKB,TRKB,"weak, if any, displacement"
same,"displacement of bound R,R-HNK from TRKB","TRKB; biotinylated R,R-HNK 1 μM",failed to displace
CN(C)CCCN1c2ccccc2Sc2ccc(Cl)cc21 [chlorpromazine],displacement of biotinylated FLX from TRKB,TRKB,"weak, if any, displacement; also recorded: failed to displace"
same,rescue of BDNF-induced pTRKB response under high CHOL,[2],failed to rescue
CN(C)CCOC(c1ccccc1)c1ccccc1 [diphenhydramine],displacement of biotinylated FLX from TRKB,TRKB,"weak, if any, displacement"
"CN[C@]1(c2ccccc2Cl)CCCCC1=O [esketamine, S-ketamine]",Ki,TRKB,2860 nM
OCCN1CCN(CCC=C2c3ccccc3Sc3ccc(C(F)(F)F)cc32)CC1 [flupenthixol],rescue of BDNF-induced pTRKB response under high CHOL,[2],failed to rescue
CN(C)CCCN1c2ccccc2CCc2ccccc21 [imipramine],affinity to TRKB.Y433F compared with wild-type TRKB,TRKB.Y433F,much lower than to the wild-type TRKB
same,Ki,TRKB,1030 nM
same,TRKB interaction with PLC-γ1,TRKB:PLC-γ1 interaction [3]; rat cortical cells,increased TRKB interaction with PLC-γ1
CC(C)NCC(O)c1ccc(O)c(O)c1 (stereo not drawn) [isoproterenol],displacement of biotinylated FLX from TRKB,TRKB,"weak, if any, displacement"
COC(=O)[C@@]1(O)C[C@H]2O[C@]1(C)n1c3ccccc3c3c4c(c5c6ccccc6n2c5c31)C(=O)NC4 [k252a],"effect on FLX- and R,R-HNK-induced increase in surface GluR1",[1],prevented
O=C(NCCN1CCOCC1)c1ccc(Cl)cc1 [moclobemide],Ki,TRKB,1510 nM
O=c1[nH]c2ccccc2n1C1CCN(CCCC(c2ccc(F)cc2)c2ccc(F)cc2)CC1 [pimozide],rescue of BDNF-induced pTRKB response under high CHOL,[2],failed to rescue
COc1ccc(C(CN(C)C)C2(O)CCCCC2)cc1 (stereo not drawn) [venlafaxine],Ki,TRKB,2080 nM
same,displacement of biotinylated FLX from TRKB,TRKB,readily displaced
"OC[C@H]1O[C@@H]2O[C@H]3[C@H](O)[C@@H](O)[C@@H](O[C@H]4[C@H](O)[C@@H](O)[C@@H](O[C@H]5[C@H](O)[C@@H](O)[C@@H](O[C@H]6[C@H](O)[C@@H](O)[C@@H](O[C@H]7[C@H](O)[C@@H](O)[C@@H](O[C@H]8[C@H](O)[C@@H](O)[C@@H](O[C@H]1[C@H](O)[C@H]2O)O[C@@H]8CO)O[C@@H]7CO)O[C@@H]6CO)O[C@@H]5CO)O[C@@H]4CO)O[C@@H]3CO [βCDX, beta-cyclodextrin]",blockade of CHOL effect on TRKB:PLC-γ1 interaction,TRKB:PLC-γ1 interaction [4],blocked
same,effect on fluoxetine-induced increase in TRKB surface exposure,surface TRKB,blocked
same,effect on BDNF-induced increase in TRKB-PLC-γ1 interaction,"TRKB:PLC-γ1 interaction [3]; bCDX 2 mM, 30 min",prevents
same,effect on antidepressant-induced TRKB:PLC-γ1 interaction,"TRKB:PLC-γ1 interaction [3]; bCDX 2 mM/30 min pretreatment, FLX, imipramine, KET, R,R-HNK",blocked
same,effect on block of BDNF-induced pTRKB by high cholesterol,"[2]; bCDX 30 min, cholesterol 100 μM/15 min, BDNF 10 ng/ml/15 min",reverses the block
"brain-derived neurotrophic factor (BDNF), biotinylated rh-BDNF (ligand)",Kd,[5],0.0029 nM
same,Kd,[6],0.0031 nM
